Measurements as given in patent US6635628B2, “Methods of administering camptothecin compounds for the treatment of cancer with reduced side effects” (The George Washington University, priority 1998, dated 2003).
Entries after “also recorded” stand apart in the source; their conditions may differ. Read-outs that look alike come from different tables or passages of the source. Marks after values point to notes of the source that are not given here.

Columns and labels:
[1] = CPT-11 metabolite formed by hepatic cytochrome P-450 3A; cited from earlier work
[2] = system: isolated intestinal cells from jejunum; assay type: in vitro ADME, hamster
Experimental: (§1) The other drugs were dissolved in distilled water. […] DNP-SG was made from glutathione and CDNB (1-chloro-2,4-dinitro benzene) chemically. All other reagents were of analytical grade. Adult male Golden Syrian hamsters (6-8 weeks age), whose model presents a bile acid profile similar to that observed in human (28), were used.
(§2) Intestinal cells were isolated as previously described (28, 29). Briefly, male hamsters were anesthetized with sodium pentobarbital (Nembutol 70 mg/kg body weight). The entire intestine was removed. The intestinal lumen was washed with 37° C. Hank's solution. Sacs of the ileum (12.5 cm from cecum) and jejunum (remaining small intestine) were rinsed, as well as the intestinal sacs of the anal site of small intestine (12.5 cm from cecum) and oral site (the other small intestine). The sacs were rinsed with oxygenated buffer solution containing sodium citrate (96 mM NaCl, 1.5 mM KCl, 5.6 mM KH2PO4, 27 mM sodium citrate, pH 7.3), and incubated for 10 min in the same buffer at 37° C. The sacs were then emptied, filled with oxygenated buffer solution containing EDTA (140 mM NaCl, 16 mM Na2HPO4, 2 mM EDTA, 0.5 mM dithiothreitol, pH 7.3), incubated for 10 min at 37° C. Then each sac was placed onto a petri dish and gently vortexed for 1 min. The buffer containing intestinal cells was recovered in 50 mL of Hanks' solution, washed twice and adjusted at 10^6 cells/ml in Hanks' medium (cellular stock solution containing 0.5% bovine serum albumin, pH 7.4).
(§3) The cellular suspension of 0.95 ml was incubated for 15 min in a 37° C. water bath with stirring. Uptake was started by the addition of 0.05 ml PBS (at pH 3 or 9) containing labeled SN-38 or CPT-11 at 37° C. At various time intervals, 100 μL, sample aliquots were diluted into 3 mL of Hank's medium at 4° C. to stop the uptake. The stop solution containing the cells was filtered through a glass microfiber filter (Glass Fiber Filter Circles G4, Fisherbrand, Pa.) under vacuum (20 psi). The cells were washed once with 5 mL of 0.5% bovine serum albumin-containing Hanks' medium (4° C.) and once with 20 mL of Hanks' solution (4° C.). The filters were placed in a vial containing 4 mL of scintillation liquid (Ultra Gold, Packard, Conn.) and the radioactivity was counted in a β scintillation counter (LS3801, Beckman, Md.).
(§4) The effect of the metabolic inhibitor, 2,4 dinitrophenol (1 mM), was studied by adding this agent to the cells 3 min prior to either ^14C-CPT-11 or ^14C-SN-38 (2 μM). The effect of 20 mM of taurocholic acid (TCA) on the uptake of both CPT-11 and SN-38 was investigated following overnight incubation of ^14C-CPT-11 (20 μM) and ^14C-SN-38 (2 μM) in Hank's solution, at pH 7.4 and in the presence and absence of TCA. The effect of 200 μM of DNP-SG or SN-38-Glu was also studied by adding these agents to the cell preparation 7 min prior to either ^14C-CPT-11 (20 μM) and ^14C-SN-38 (2 μM).
(§5) The initial rate of uptake of CPT-11 or SN-38 was derived from the linear regression analysis of the respective regression line obtained from the plot of the uptake as a function of time. The initial rates of uptake were plotted against the corresponding concentration. The data were fitted by least-squares nonlinear regression analysis (SigmaStat, Jandel Scientific, CA), using the equation V=(Vmax·S)/(Km+S)+Kd·S where V represents the initial rate of uptake. Vmax is the maximum rate of uptake, Km is the apparent Michaelis constant, Kd is the rate of diffusion and S is the concentration of CPT-11 or SN-38.

ileal cells = assay type: in vitro ADME, hamster
Experimental: as §1, §2, §3, §4, §5

[3] = system: intestinal cells from whole small-intestine; assay: Uptake of 14C-labeled CPT-11 and SN-38 by intestinal cells, regions combined or not distinguished (TCA, pH, bicarbonate effects); conditions: for uptake rate of the lactone compared with the carboxylate form: cells from both intestinal regions; for saturability of the uptake (predominant component): SN-38 concentrations lower than 2 μM
Experimental: By adding the drugs to Hank's solution containing intestinal cells from whole small-intestine, uptake studies were performed.
as §2, §3, §4
The effect of physiologic pH on the initial intestinal uptake rate of CPT-11 and SN-38 was investigated following overnight incubation of ^14C-CPT-11 (20 μM) and ^14C-SN-38 (2 μM) in phosphate buffered saline at pH 6.2, 6.8, 7.4 and 8, respectively.
as §5

[4] = assay type: physicochemical; conditions: 1,000-molecular weight cut-off membrane
From the text: Monomers were separated from micellar aggregates by ultrafiltration through a 1000-molecular weight cut-off membrane (YM1) as described in Materials and Methods. Values are the monomeric forms of the indicated metabolites, expressed as a percentage (%) of the concentration of the initial solution before ultrafiltration. Comparison between TCA and control was estimated by Mann-Whitney test. […] Abbreviations used: CPT lactone (CPT lact.); CPT carboxylate (CPT carb.); SN-38 lactone (SN lact.); and SN-38 carboxylate (SN carb.).

[5] = cited from earlier work
[6] = cited from earlier work; remark: listed apart in the source
[7] = bile of two men treated by cisplatin who received CPT-11 intravenously; cited from earlier work
[8] = bile acid micelles; cited from earlier work
[9] = 20 μM 14C-CPT-11, 2 μM 14C-SN-38
[10] = % of control, inhibitor 1 mM added 3 min before [14C]CPT-11 (20 μM), n=5
[11] = % of control, inhibitor 1 mM added 3 min before [14C]SN-38 (2 μM), n=5
[12] = % of control, inhibitor 200 μM added 7 min before [14C]CPT-11 (20 μM), n=5
[13] = % of control, inhibitor 200 μM added 7 min before [14C]SN-38 (2 μM), n=5

## CCc1c2c(nc3ccc(OC(=O)N4CCC(NCCCCC(=O)O)CC4)cc13)-c1cc3c(c(=O)n1C2)COC(=O)C3(O)CC (stereo not drawn) [7-ethyl-10-[4-N-(5-aminopentanoic acid)-1-piperidino]carbonyloxycamptothecin]
[1]
  antitumor activity weaker than SN-38: 500 fold

## CCc1c2c(nc3ccc(OC(=O)N4CCC(N5CCCCC5)CC4)cc13)-c1cc([C@@](O)(CC)C(=O)O)c(CO)c(=O)n1C2 [CPT-11 carboxylate]
[2]; jejunum, fit V=(Vmax·S)/(Km+S)+Kd·S, mean, read-out: Km (apparent Michaelis constant of uptake)
  Km: 51.3 µM
[2]; jejunum, nonlinear regression fit, mean
  Vmax (maximum rate of uptake): 146.9 p mol · 10 ^6 cells^−1 · min^−1
Ileal cells; ileum, fit V=(Vmax·S)/(Km+S)+Kd·S, mean, read-out: Km (apparent Michaelis constant of uptake)
  Km: 50.5 µM
Ileal cells; ileum, nonlinear regression fit, mean
  Vmax (maximum rate of uptake): 157.3 p mol · 10 ^6 cells^−1 · min^−1
[3]
  transport mechanism in intestinal cells: actively absorbed

## CCc1c2c(nc3ccc(OC(=O)N4CCC(N5CCCCC5)CC4)cc13)-c1cc3c(c(=O)n1C2)COC(=O)[C@]3(O)CC [CPT-11 lactone]
[4]
  effect of TCA on % monomer concentration / association to TCA micelles: significantly decreased
[3]
  transport mechanism in intestinal cells: passively transported
[3]; [9]
  uptake rate of the lactone compared with the carboxylate form: more rapidly taken up; also recorded: several times greater
[3]; jejunal and ileal cells
  Kd lower than that of SN-38 lactone: 1.8-2.5 fold
  saturability of the uptake (predominant component): non-saturable

## CCc1c2c(nc3ccc(OC(=O)N4CCC(N5CCCCC5)CC4)cc13)-c1cc3c(c(=O)n1C2)COC(=O)[C@]3(O)CC.Cl [CPT-11, (4S)-4,11-diethyl-4-hydroxy-9-[(4-piperidinopiperidino)carbonyloxy]1H-pyrano [3′,4′:6,7] indolizino[1,2-b]quinoline-3,14(4 h, 12H)dione hydrochloride]
[5]; before adoption of loperimide therapy
  incidence of grade 4 diarrhea: 17%
[5]; following adoption of an aggressive loperimide therapy
  incidence of grade 4 diarrhea: 5%
[6]
  share in lactone form at pH 7.4: 13%
[7]
  share of the biliary content: 75.6-91.9%
[3]
  initial uptake rate at acidic pH (pH 6.2 and 6.8) versus neutral or alkaline pH (pH 7.4 and 8): several times greater
[3]; cells from jejunum and ileum combined, 14C-CPT-11 20 μM, 14C-SN-38 2 μM, pH 7.4, mean±SD, n=5
  initial uptake rate in the presence of 20 mM TCA: 48.5±10.8 % of control without TCA
[3]; pH 6.2 to 8, 20 μM 14C-CPT-11, 2 μM 14C-SN-38
  decrease of the uptake rate at a pH greater than 6.8: around 65%
[3]; pH adjusted to greater than 7
  uptake when HEPES of the Hank's buffer was replaced by sodium bicarbonate: decreased

## N[C@@H](CCC(=O)N[C@@H](CSc1ccc([N+](=O)[O-])cc1[N+](=O)[O-])C(=O)NCC(=O)O)C(=O)O [DNP-SG, 2,4-dinitrophenyl-S-glutathione]
[2]
  initial uptake rate of CPT-11 carboxylate, jejunum: 103.2%
  initial uptake rate of CPT-11 lactone, jejunum: 105.4%
  initial uptake rate of SN-38 carboxylate, jejunum: 32.0* %
  initial uptake rate of SN-38 lactone, jejunum: 78.8%
Ileal cells
  initial uptake rate of CPT-11 carboxylate, ileum: 105.8%
  initial uptake rate of SN-38 carboxylate, ileum: 28.5* %
[3]
  effect of the added agent on the uptake rate of SN-38 lactone: not significantly affected
[3]; intestinal region not given
  effect of the added agent on the uptake of CPT-11 carboxylate: remained unchanged
  effect of the added agent on the uptake rate of CPT-11 lactone: not significantly affected

## O=[N+]([O-])c1ccc(O)c([N+](=O)[O-])c1 [Dinitrophenol, 2,4-dinitrophenol]
[2]; [10]
  initial uptake rate of CPT-11 carboxylate, jejunum: 22.6%
  initial uptake rate of CPT-11 lactone, jejunum: 94.1%
[2]; [11]
  initial uptake rate of SN-38 carboxylate, jejunum: 25.5%
  initial uptake rate of SN-38 lactone, jejunum: 96.1%
Ileal cells; [10]
  initial uptake rate of CPT-11 carboxylate, ileum: 29.2%
  initial uptake rate of CPT-11 lactone, ileum: 105.5%
Ileal cells; [11]
  initial uptake rate of SN-38 carboxylate, ileum: 30.8%
  initial uptake rate of SN-38 lactone, ileum: 134.9%
[3]; intestinal region not given
  effect of the added agent on the uptake rate of CPT-11 lactone: not significantly affected
  effect of the added agent on the uptake rate of SN-38 lactone: not significantly affected

## CCc1c2c(nc3ccc(O[C@@H]4O[C@H](C(=O)O)[C@@H](O)[C@H](O)[C@H]4O)cc13)-c1cc3c(c(=O)n1C2)COC(=O)[C@]3(O)CC [SN38-Glu, SN-38 β-glucuronide]
[2]; [12]
  initial uptake rate of CPT-11 carboxylate, jejunum: 108.9%
  initial uptake rate of CPT-11 lactone, jejunum: 88.9%
[2]; [13]
  initial uptake rate of SN-38 carboxylate, jejunum: 40.1* %
  initial uptake rate of SN-38 lactone, jejunum: 54.3%
Ileal cells; [12]
  initial uptake rate of CPT-11 carboxylate, ileum: 93.9%
Ileal cells; [13]
  initial uptake rate of SN-38 carboxylate, ileum: 28.9* %
[7]
  share of the biliary content: 7.3-18.9%
[3]; intestinal region not given
  effect of the added agent on the uptake of CPT-11 carboxylate: remained unchanged
  effect of the added agent on the uptake rate of CPT-11 lactone: not significantly affected
  effect of the added agent on the uptake rate of SN-38 lactone: not significantly affected

## CCc1c2c(nc3ccc(O)cc13)-c1cc3c(c(=O)n1C2)COC(=O)[C@]3(O)CC [SN-38 lactone]
[4]
  effect of TCA on % monomer concentration / association to TCA micelles: significantly decreased
[3]
  transport mechanism in intestinal cells: passively transported
[3]; [9]
  uptake rate of the lactone compared with the carboxylate form: more rapidly taken up; also recorded: several times greater
[3]; jejunal and ileal cells
  saturability of the uptake (predominant component): mostly non-saturable

## CC(C)CCC[C@@H](C)[C@H]1CC[C@H]2[C@@H]3CC=C4C[C@@H](O)CC[C@]4(C)[C@H]3CC[C@]12C [cholesterol]
[8]
  percentage of the monomer concentration (comparison values): 3%

## CCCCCCCC/C=C\CCCCCCCC(=O)O [oleic acid]
[8]
  percentage of the monomer concentration (comparison values): 2.3%
